Experimental data as given in ChEMBL document CHEMBL2346530, “Discovery of non-peptide inhibitors of Plasmepsin II by structure-based virtual screening” (Bioorg Med Chem Lett, 2013).

Columns and labels:
Plasmepsin II = Plasmepsin II (Plasmodium falciparum, UniProt P46925); test: Inhibition of recombinant Plasmodium falciparum plasmepsin 2 expressed in Escherichia coli using DABCYL-Glu-Arg-Nle-Phe-Leu-Ser-Phe-Pro-EDANS as substrate incubated for 40 mins prior to substrate addition measured after 10 mins by FRET-based fluorometric analysis
[1] = molecular target: Plasmepsin II (Plasmodium falciparum) (UniProt P46925); test: Inhibition of recombinant Plasmodium falciparum plasmepsin 2 expressed in Escherichia coli using DABCYL-Glu-Arg-Nle-Phe-Leu-Ser-Phe-Pro-EDANS as substrate at 10 uM incubated for 40 mins prior to substrate addition measured after 10 mins by FRET-based fluorometric analysis
Plasmepsin II (Plasmodium falciparum), sequence (P46925 125-453 limits assumed): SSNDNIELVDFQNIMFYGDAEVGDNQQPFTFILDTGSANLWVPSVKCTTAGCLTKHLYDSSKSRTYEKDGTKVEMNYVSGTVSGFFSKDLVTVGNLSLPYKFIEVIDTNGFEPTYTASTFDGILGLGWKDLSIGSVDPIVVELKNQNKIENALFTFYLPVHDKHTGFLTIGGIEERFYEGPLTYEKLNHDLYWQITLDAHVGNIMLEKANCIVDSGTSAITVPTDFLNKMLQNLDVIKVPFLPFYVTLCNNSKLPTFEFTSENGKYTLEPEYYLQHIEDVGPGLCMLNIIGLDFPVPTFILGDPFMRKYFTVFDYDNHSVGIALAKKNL

Plasmepsin II, sequence (P46925 whole entry): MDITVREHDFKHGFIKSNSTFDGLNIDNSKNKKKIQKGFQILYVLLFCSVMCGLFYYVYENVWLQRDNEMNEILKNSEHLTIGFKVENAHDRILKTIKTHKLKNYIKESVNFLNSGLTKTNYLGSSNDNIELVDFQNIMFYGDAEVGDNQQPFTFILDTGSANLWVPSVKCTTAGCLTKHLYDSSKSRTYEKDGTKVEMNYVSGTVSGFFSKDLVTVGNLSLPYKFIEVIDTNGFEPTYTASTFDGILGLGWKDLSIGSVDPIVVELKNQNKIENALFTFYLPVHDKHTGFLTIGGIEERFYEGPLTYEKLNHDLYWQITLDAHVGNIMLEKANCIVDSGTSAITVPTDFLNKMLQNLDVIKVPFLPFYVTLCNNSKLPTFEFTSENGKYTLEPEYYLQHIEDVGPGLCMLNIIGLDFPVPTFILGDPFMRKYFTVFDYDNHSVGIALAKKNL

Structure (SMILES)	IC50 (Plasmepsin II) [µM]	inhibition [1] [%]
Cc1ccccc1N/C(=N\N=C/c1ccc2ccc3ccc(/C=N\N=C(/Nc4ccccc4C)c4ccccn4)nc3c2n1)c1ccccn1	4.62	67.7
O=C(CN(c1cccc(Br)c1)S(=O)(=O)c1ccccc1)Nc1ccc(CSc2ccccc2)cc1	8.99	54.7
Cc1ccc(S(=O)(=O)Nc2ccccc2CNc2cnc3ccccc3c2)cc1	7	60.6
OC(CNCc1ccccc1)Cn1c2ccc(Cl)cc2c2cc(Cl)ccc21 (stereo not given)	9.47	52
N=C(S)NN/C(=C\c1nc(-c2ccccn2)cc2ccccc12)c1ccc(Cl)cc1	6.45	55
